Structures can show the parent of a compound that is named as a salt.
How the values were obtained:
[1] = test system: L6-myotubes; experiment: Glucose uptake (3H-2-deoxyglucose) in differentiated L6-myotubes; assay type: cell-based; conditions: compound at 10 µM (1×10^−5 M) vs isoproterenol at 10 µM, read-out: Biological example 1: glucose uptake, activity compared to that of isoproterenol
Method: L6-myoblasts were grown in Dulbecco's Modified Eagle's Medium (DMEM) containing 1 g/L glucose supplemented with 10% fetal bovine serum, 2 mM L-Glutamine, 50 U/ml penicillin, 50 μg/mL streptomycin and 10 mM HEPES. Cells were plated at 1×10^5 cells per mL in 24-well plates. After reaching 90% confluence the cells were grown in medium containing 2% FBS for 7 days where upon cells differentiated into myotubes. Differentiated L6-myotubes were serum-starved overnight in medium containing 0.5% fatty-acid free BSA and stimulated with an agonist, with a final concentration of 1×10^−5 M. After 1 h 40 min the cells were washed with warm glucose free medium or PBS twice and another portion of agonist was added to the glucose free medium. After 20 min the cells were exposed to 50 nM ^3H-2-deoxyglucose for another 10 min before washed in ice cold glucose free medium or PBS three times and lysed in 400 μL/well 0.2 M NaOH for 1 h at 60° C. The cell lysate was mixed with 4 mL scintillation buffer (Emulsifier Safe, Perkin Elmer) and the radioactivity was detected in a β-counter (Tri-Carb 4810TR, Perkin Elmer). The activity for each compound is compared to that of isoproterenol.

[2] = test system: L6-myotubes; experiment: Measurement of intracellular cAMP levels in differentiated L6 cells; assay type: cell-based; conditions: Rattus norvegicus, L6, 0.25 h, compound at 10 µM (1×10^−5 M), 15 min, vs isoproterenol at 10 µM, read-out: Biological example 2: intracellular cAMP levels, activity compared to that of isoproterenol
Method: L6-myoblasts were grown in Dulbecco's Modified Eagle's Medium (DMEM) containing 1 g/L glucose supplemented with 10% fetal bovine serum, 2 mM L-Glutamine, 50 U/ml penicillin, 50 μg/mL streptomycin and 10 mM HEPES. Cells were plated at 1×10^5 cells per mL in 24-well plates. After reaching 90% confluence the cells were grown in medium containing 2% FBS for 7 days where upon cells differentiated into myotubes. Differentiated cells were serum-starved overnight and stimulated with an agonist, final concentration 1×10^−5 M, for 15 min in stimulation buffer (HBSS supplemented with 1% BSA, 5 mM HEPES and 1 mM IBMX, pH 7.4). The medium was aspirated and 100 μL of 95% EtOH was added to each well of the 24-well plate and cells were kept at −20° C. overnight. The EtOH was allowed to evaporate and 500 μL of lysis buffer (1% BSA, 5 mM HEPES and 0.3% Tween-20, pH 7.4) was added to each well. The plate was kept at −80° C. for 30 min and then at −20° C. until the day of detection when the samples were thawed. Intracellular cAMP levels were detected using an alpha screen CAMP kit (6760635D from Perkin Elmer). The activity for each compound is compared to that of isoproterenol.

Structure (SMILES) | Emax at 10 µM [1] [%] | Emax at 10 µM [2] [%]
O[C@H](c1cncc(F)c1)C12CCC(C/C=C/c3ccccc3)(CC1)N2 [Example 29, (R)-(4-Cinnamyl-7-azabicyclo[2.2.1]heptan-1-yl)(5-fluoropyridin-3-yl)-methanol] | > 75 | < 25
O[C@@H](c1cncc(F)c1)C12CCC(C/C=C/c3ccccc3)(CC1)N2 [Example 30, (S)-(4-Cinnamyl-7-azabicyclo[2.2.1]heptan-1-yl)(5-fluoropyridin-3-yl)-methanol] | 25 to 50 | < 25
O[C@H](c1cccc(F)c1)C12CCC(C/C=C/c3ccccc3)(CC1)N2 [Example 31, (R)-(4-Cinnamyl-7-azabicyclo[2.2.1]heptan-1-yl)(3-fluorophenyl)methanol] | > 75 | < 25
O[C@@H](c1cccc(F)c1)C12CCC(C/C=C/c3ccccc3)(CC1)N2 [Example 32, (S)-(4-Cinnamyl-7-azabicyclo[2.2.1]heptan-1-yl)(3-fluorophenyl)methanol] | < 25 | < 25
O[C@H](c1cncc(F)c1)C12CCC(CCCc3ccccc3)(CC1)N2 [Example 33, (R)-(5-Fluoropyridin-3-yl)(4-(3-phenylpropyl)-7-azabicyclo[2.2.1]heptan-1-yl)methanol hydrochloride] | 50 to 75 | 25 to 50
O[C@@H](c1cncc(F)c1)C12CCC(CCCc3ccccc3)(CC1)N2 [Example 34, (S)-(5-Fluoropyridin-3-yl)(4-(3-phenylpropyl)-7-azabicyclo[2.2.1]heptan-1-yl)methanol hydrochloride] | 50 to 75 | < 25
O[C@H](c1cccc(F)c1)C12CCC(CCCc3ccccc3)(CC1)N2 [Example 35, (R)-(3-Fluorophenyl)(4-(3-phenylpropyl)-7-azabicyclo[2.2.1]heptan-1-yl)methanol hydrochloride] | > 75 | 25 to 50
O[C@@H](c1cccc(F)c1)C12CCC(CCCc3ccccc3)(CC1)N2 [Example 36, (S)-(3-Fluorophenyl)(4-(3-phenylpropyl)-7-azabicyclo[2.2.1]heptan-1-yl)methanol hydrochloride] | 25 to 50 | < 25
O[C@H](c1cccc(F)c1)C12CCC(CCc3ccc(Cl)cc3)(CC1)N2 [Example 37, (R)-4-(4-Chlorophenethyl)-7-azabicyclo[2.2.1]heptan-1-yl)-(3-fluorophenyl)methanol acetate] | < 25 | < 25
O[C@@H](c1cccc(F)c1)C12CCC(CCc3ccc(Cl)cc3)(CC1)N2 [Example 38, (S)-(4-(4-Chlorophenethyl)-7-azabicyclo[2.2.1]heptan-1-yl)(3-fluoro-phenyl)methanol acetate] | < 25 | < 25
COc1ccc(CCC23CCC([C@H](O)c4cccc(F)c4)(CC2)N3)cc1 [Example 39, (R)-(3-Fluorophenyl)(4-(4-methoxyphenethyl)-7-azabicyclo[2.2.1]heptan-1-yl)methanol acetate] | 50 to 75 | < 25
COc1ccc(CCC23CCC([C@@H](O)c4cccc(F)c4)(CC2)N3)cc1 [Example 40, (S)-(3-Fluorophenyl)(4-(4-methoxyphenethyl)-7-azabicyclo[2.2.1]heptan-1-yl)methanol acetate] | < 25 | < 25
COc1ccc(CCC23CCC([C@H](O)c4cncc(F)c4)(CC2)N3)cc1 [Example 41, (R)-(5-Fluoropyridin-3-yl)(4-(4-methoxyphenethyl)-7-azabicyclo-[2.2.1]heptan-1-yl)methanol dihydrochloride] | 50 to 75 | 25 to 50
COc1ccc(CCC23CCC([C@@H](O)c4cncc(F)c4)(CC2)N3)cc1 [Example 42, (S)-(5-Fluoropyridin-3-yl)(4-(4-methoxyphenethyl)-7-azabicyclo-[2.2.1]heptan-1-yl)methanol dihydrochloride] | < 25 | < 25
